# Laboratory results from patent US12606541B2, “PPARg modulators and methods of use” (Eisai R&D Management Co., Ltd., priority 2020, dated 2026).
# Molecular target: T1, His6-TEV-PPARγ-(234-505) (Homo sapiens, UniProt P37231)
# T1 construct: The His6-TEV-PPARγ-(234-505) protein for assay was expressed and purified; TEV cleavage site (N); made in house
# T1 sequence (P37231 234-505): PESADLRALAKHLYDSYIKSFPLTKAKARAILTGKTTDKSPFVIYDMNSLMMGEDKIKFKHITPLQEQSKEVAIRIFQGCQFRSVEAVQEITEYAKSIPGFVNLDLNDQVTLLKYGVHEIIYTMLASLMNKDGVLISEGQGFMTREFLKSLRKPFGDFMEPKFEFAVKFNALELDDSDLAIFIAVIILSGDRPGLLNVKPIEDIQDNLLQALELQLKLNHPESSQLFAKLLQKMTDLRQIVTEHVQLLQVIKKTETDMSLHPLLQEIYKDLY
# Assay: TR-FRET Assay to Measure Co-R Peptide Recruitment to PPARγ
# Type: biochemical
# Settings: Co-R peptide recruitment to PPARγ; read-out: TR-FRET AC50
# In short: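 His-tagged PPARγ (or controls) was preincubated with compound for 20 minutes at room temperature, then 5 nM anti-His terbium antibody and 200 nM FITC-labeled SMRT-ID2 corepressor peptide (final) were added for a further hour. TR-FRET signal was normalized to percent response using 500 nM T0070907 and DMSO controls.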
row,Structure (SMILES),AC50 [µM]
1,O=C(NCc1ccc(Cl)cc1)C1CCN(C(=O)c2cc(-c3cccnc3)[nH]n2)CC1 [N-[(4-chlorophenyl)methyl]-1-[5-(pyridin-3-yl)-1H-pyrazole-3-carbonyl]piperidine-4-carboxamide],> 1
2,O=C(NCc1ccc(Cl)cc1)C1CCN(C(=O)c2cc(-c3ccncc3)[nH]n2)CC1 [N-[(4-chlorophenyl)methyl]-1-[5-(pyridin-4-yl)-1H-pyrazole-3-carbonyl]piperidine-4-carboxamide],> 1
3,"O=C(NCc1nc(C2CC2)cs1)C1CCN(C(=O)c2cc(-c3ccncc3)[nH]n2)CC1 [N-[(4-cyclopropyl-1,3-thiazol-2-yl)methyl]-1-[5-(pyridin-4-yl)-1H-pyrazole-3-carbonyl]piperidine-4-carboxamide]",> 1
4,"CCc1csc(CNC(=O)C2CCN(C(=O)c3cc(-c4ccncc4)[nH]n3)CC2)n1 [N-[(4-ethyl-1,3-thiazol-2-yl)methyl]-1-[5-(pyridin-4-yl)-1H-pyrazole-3-carbonyl]piperidine-4-carboxamide]",> 1
5,COc1ccc(CNC(=O)C2CCN(C(=O)c3cc(-c4ccncc4)[nH]n3)CC2)cc1 [N-[(4-methoxyphenyl)methyl]-1-[5-(pyridin-4-yl)-1H-pyrazole-3-carbonyl]piperidine-4-carboxamide],> 1
6,"Cc1csc(CNC(=O)C2CCN(C(=O)c3cc(-c4ccncc4)[nH]n3)CC2)n1 [N-[(4-methyl-1,3-thiazol-2-yl)methyl]-1-[5-(pyridin-4-yl)-1H-pyrazole-3-carbonyl]piperidine-4-carboxamide]",> 1
7,Cc1csc(CNC(=O)C2CCN(C(=O)c3cc(-c4ccncc4)[nH]n3)CC2)c1 [N-[(4-methylthiophen-2-yl)methyl]-1-[5-(pyridin-4-yl)-1H-pyrazole-3-carbonyl]piperidine-4-carboxamide],> 1
8,"CC(C)(C)c1csc(CNC(=O)C2CCN(C(=O)c3cc(-c4ccncc4)[nH]n3)CC2)n1 [N-[(4-tert-butyl-1,3-thiazol-2-yl)methyl]-1-[5-(pyridin-4-yl)-1H-pyrazole-3-carbonyl]piperidine-4-carboxamide]",> 1
9,CC(C)(C)c1ccc(CNC(=O)C2CCN(C(=O)c3cc(-c4ccncc4)[nH]n3)CC2)cc1 [N-[(4-tert-butylphenyl)methyl]-1-[5-(pyridin-4-yl)-1H-pyrazole-3-carbonyl]piperidine-4-carboxamide],> 1
10,CN(Cc1ccc(C(C)(C)C)cc1)C(=O)C1CCN(C(=O)c2cc(-c3ccncc3)[nH]n2)CC1 [N-[(4-tert-butylphenyl)methyl]-N-methyl-1-[5-(pyridin-4-yl)-1H-pyrazole-3-carbonyl]piperidine-4-carboxamide],> 1
11,"Cc1cc(CNC(=O)C2CCN(C(=O)c3cc(-c4ccncc4)[nH]n3)CC2)cnc1C [N-[(5,6-dimethylpyridin-3-yl)methyl]-1-[5-(pyridin-4-yl)-1H-pyrazole-3-carbonyl]piperidine-4-carboxamide]",> 1
12,COc1ccc(Cl)cc1CNC(=O)C1CCN(C(=O)c2cc(-c3ccncc3)[nH]n2)CC1 [N-[(5-chloro-2-methoxyphenyl)methyl]-1-[5-(pyridin-4-yl)-1H-pyrazole-3-carbonyl]piperidine-4-carboxamide],> 1
13,"Cc1nc(CNC(=O)C2CCN(C(=O)c3cc(-c4ccncc4)[nH]n3)CC2)no1 [N-[(5-methyl-1,2,4-oxadiazol-3-yl)methyl]-1-[5-(pyridin-4-yl)-1H-pyrazole-3-carbonyl]piperidine-4-carboxamide]",> 1
14,CC(C)(C)c1ccc(CNC(=O)C2CCN(C(=O)c3cc(-c4ccncc4)[nH]n3)CC2)cn1 [N-[(6-tert-butylpyridine-3-yl)methyl]1-[5-(pyridin-4-yl)-1H-pyrazole-3-carbonyl]piperidine-4-carboxamide],> 1
15,O=C(NCc1ccccc1)C1CCN(C(=O)c2cc(-c3ccncc3)[nH]n2)CC1 [N-benzyl-1-[5-(pyridin-4-yl)-1H-pyrazole-3-carbonyl]piperidine-4-carboxamide],> 1
16,CN(Cc1ccccc1)C(=O)C1CCN(C(=O)c2cc(-c3ccncc3)[nH]n2)CC1 [N-benzyl-N-methyl-1-[5-(pyridin-4-yl)-1H-pyrazole-3-carbonyl]piperidine-4-carboxamide],> 1
17,O=C(NC1CCCCC1)C1CCN(C(=O)c2cc(-c3ccncc3)[nH]n2)CC1 [N-cyclohexyl-1-[5-(pyridin-4-yl)-1H-pyrazole-3-carbonyl]piperidine-4-carboxamide],> 1
18,O=C(NC1CCCC1)C1CCN(C(=O)c2cc(-c3ccncc3)[nH]n2)CC1 [N-cyclopentyl-1-[5-(pyridin-4-yl)-1H-pyrazole-3-carbonyl]piperidine-4-carboxamide],> 1
19,O=C(NC1CC1)C1CCCN(C(=O)c2cc(-c3ccncc3)[nH]n2)C1 (centres unmarked) [N-cyclopropyl-1-[5-(pyridin-4-yl)-1H-pyrazole-3-carbonyl]piperidine-3-carboxamide],> 1
20,O=C(NC1CC1)C1CCN(C(=O)c2cc(-c3ccncc3)[nH]n2)CC1 [N-cyclopropyl-1-[5-(pyridin-4-yl)-1H-pyrazole-3-carbonyl]piperidine-4-carboxamide],> 1
21,CCNC(=O)C1CCN(C(=O)c2cc(-c3ccncc3)[nH]n2)CC1 [N-ethyl-1-[5-(pyridin-4-yl)-1H-pyrazole-3-carbonyl]piperidine-4-carboxamide],> 1
22,CNC(=O)CN1CCN(C(=O)C2CCN(C(=O)c3cc(-c4ccncc4)[nH]n3)CC2)CC1 [N-methyl-2-(4-{1-[5-(pyridin-4-yl)-1H-pyrazole-3-carbonyl]piperidine-4-carbonyl}piperazin-1-yl)acetamide],> 1
23,CN1CCC(N(C)C(=O)C2CCN(C(=O)c3cc(-c4ccncc4)[nH]n3)CC2)CC1 [N-methyl-N-(1-methylpiperidin-4-yl)-1-[5-(pyridin-4-yl)-1H-pyrazole-3-carbonyl]piperidine-4-carboxamide],> 1
24,CC(C)CN(C)C(=O)C1CCN(C(=O)c2cc(-c3ccncc3)[nH]n2)CC1 [N-methyl-N-(2-methylpropyl)-1-[5-(pyridin-4-yl)-1H-pyrazole-3-carbonyl]piperidine-4-carboxamide],> 1
25,CCCN(C)C(=O)C1CCN(C(=O)c2cc(-c3ccncc3)[nH]n2)CC1 [N-methyl-N-propyl-1-[5-(pyridin-4-yl)-1H-pyrazole-3-carbonyl]piperidine-4-carboxamide],> 1
26,O=C(Nc1ccccc1)C1CCN(C(=O)c2cc(-c3ccncc3)[nH]n2)CC1 [N-phenyl-1-[5-(pyridin-4-yl)-1H-pyrazole-3-carbonyl]piperidine-4-carboxamide],> 1
27,CC(C)(C)Oc1ccc(CNC(=O)C2CCN(C(=O)c3cc(-c4ccncc4)[nH]n3)CC2)cc1 [N-{[4-(tert-butoxy)phenyl]methyl}-1-[5-(pyridin-4-yl)-1H-pyrazole-3-carbonyl]piperidine-4-carboxamide],> 1
28,COc1cc(-c2cc(C(=O)N3CCC(C(=O)NC45CC(C4)C5)CC3)n[nH]2)c(Cl)cn1 [N-{bicyclo[1.1.1]pentan-1-yl}-1-[5-(5-chloro-2-methoxypyridin-4-yl)-1H-pyrazole-3-carbonyl]piperidine-4-carboxamide],> 1
29,O=C(c1cc(-c2ccncc2)[nH]n1)N1CCC(C(=O)N2CCC[C@H]2CO)CC1 [[(2S)-1-{1-[5-(pyridin-4-yl)-1H-pyrazole-3-carbonyl]piperidine-4-carbonyl}pyrrolidin-2-yl]methanol],> 1
